From ChEMBL document CHEMBL1201862, “PubChem BioAssay data set” (2004) come the findings set out here.

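Growth conditions: 96-well plates. Treatment: test compound, 48 hours, 5 concentrations. Analysis: linear interpolation between bracketing concentrations; unreached endpoints set to highest concentration. GI50 = concentration required for 50% inhibition of growth.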 Active and inactive are the calls of the source. Cut-off read from the data, not from the text of the source: active = GI50 up to about 1.1 µM and inactive = higher.

Common to all, as to experiment: NCI-60 cell line screen, 48 h
Assay [1] concerns DLD-1.
Assay [2] relates to DMS-114.
In assay [3] the test system is HOP-18.
The subject of assay [4] is KM-20L2.
The subject of assay [5] is LXFL 529.
Assay [6] deals with M19-MEL.
Assay [7] relates to SNB-78.
The test system of assay [8] is RXF 631.
Assay [9] relates to XF498.

Take `Cn1cc2ccccc2c1-c1nc(F)nc(Oc2ccc3c(c2)CC[C@@H]2C3CC[C@]3(C)C(O)CCC23)n1` (some centres not stated): the GI50 in assay [1] was 15.9 µM (inactive); in [2], 13.8 µM (inactive); in [3], 15.3 µM (inactive); in [4], 20.2 µM (inactive); in assay [5] it was 10.4 µM (inactive); in assay [6] it was 21.7 µM (inactive). Also, in [7], the GI50 was 12.2 µM (inactive).

Consider `[O-][N+]1=C(c2ccccc2)COc2ccccc21`, for which the GI50 in assay [1], in assay [2], in [3], in assay [4], in [5] and in assay [6] was > 100 µM (inactive) each time. Moreover, the GI50 in assay [8] is 70.1 µM (inactive); in [7] it was > 100 µM (inactive).

Take `COc1cc2c(cc1O)CCN[C@@]21CS[C@H]2c3c(OC(C)=O)c(C)c4c(c3C(COC1=O)N1C2C2NC(Cc3cc(C)c(OC)c(O)c32)[C@@H]1C#N)OCO4` (some centres not stated): the GI50 in assay [1], in assay [2], in [4], in [5], in [6] and in assay [8] was < 0.01 µM (active) each time. In addition, the GI50 in assay [9] was < 0.01 µM (active).

With `CCN(CCCl)CCCCNc1c2ccccc2nc2ccc(OC)cc12`, the GI50 was 0.0891 µM (active) in [1]; 0.323 µM (active) in assay [2]; 0.238 µM (active) in assay [4]; 0.0923 µM (active) in assay [5]; 0.235 µM (active) in assay [6]; 0.553 µM (active) in assay [8]. For the same molecule, in assay [7], the GI50 is 0.527 µM (active).

As for `COC(=O)/C([Se]c1c(C)cc(C)cc1C)=C(\[Se]c1c(C)cc(C)cc1C)C(=O)OC`, the GI50 in [1], in [2], in [3], in [4], in assay [5] and in assay [6] was > 100 µM (inactive) each time. Also, the GI50 in [8] and in [7] was > 100 µM (inactive) each time.

In the case of `c1ccc(N2N=NC3C4CC(C5c6ccccc6C45)C32)cc1` (configuration not stated), the GI50 in assay [1] is 32.5 µM (inactive); in assay [2] it was 19.9 µM (inactive); in assay [4] it was 32.4 µM (inactive); in assay [5], 44 µM (inactive); in assay [6], 22.7 µM (inactive); in assay [8] it was 34.7 µM (inactive). In addition, the figures for the GI50 in assay [7] and in [9] were 43.4 µM (inactive) and 19.1 µM (inactive), respectively.

For `NCC1(N2CCOCC2)C2CCCC21CO` (configuration not stated), the GI50 in [1], in [2], in assay [3], in assay [5], in assay [6] and in assay [7] was > 100 µM (inactive) throughout.

With `CC(C)(C)OC(=O)NC1CCCC1=O` (configuration not stated), the GI50 in [1], in [4], in [5], in assay [6], in assay [8] and in assay [7] was > 100 µM (inactive) in each case. Moreover, in assay [9], the GI50 is > 100 µM (inactive).

For the molecule `O=C1COc2cc3c(cc2N1)SCC(=O)N3`, the GI50 in assay [1], in assay [2], in assay [3], in [5], in assay [6] and in [8] was > 100 µM (inactive) each time. Besides, the GI50 in [7] and in assay [9] was > 100 µM (inactive) in each case.

Regarding `O=C(O)[C@H](NS(=O)(=O)c1ccc([N+](=O)[O-])cc1)c1ccccc1`, the GI50 in assay [1], in assay [2], in assay [3], in assay [4], in [5] and in [6] was > 100 µM (inactive) each time. Besides, the GI50 in [8], in assay [7] and in assay [9] was > 100 µM (inactive) in each case.

For `COc1cccc2c1c1ccc3c(c1n2C)C(=O)C=CC3=O`, the GI50 is 16.4 µM (inactive) in [1]; 20 µM (inactive) in [2]; 14.1 µM (inactive) in assay [3]; 63.4 µM (inactive) in assay [4]; 12 µM (inactive) in assay [5]; 1.24 µM (inactive) in assay [6]. For the same molecule, the GI50 in assay [7] is 18.7 µM (inactive); in [9], 15.8 µM (inactive).

Regarding `COC1=C(C)C(=O)C2=C(C1=O)C1C3CC4=C(C(=O)C(OC)=C(C)C4=O)C(CNC(=O)C(C)=O)N3C(C#N)C(C2)N1C` (configuration not stated), the GI50 in assay [1] was 0.00254 µM (active); in assay [2] it was 0.00162 µM (active); in assay [3], 0.0553 µM (active); in assay [4] it was 0.0149 µM (active); in assay [6], 0.00634 µM (active); in assay [8], 0.0206 µM (active). Also, the GI50 in [7] was 0.00617 µM (active).

With `COC(=O)/C=C/C(=O)C1C(C(=O)OC)C2(C(=O)OC)CCC1(C(=O)OC)N2` (configuration not stated), the GI50 in assay [1] was > 100 µM (inactive); in [2], > 100 µM (inactive); in [3], > 100 µM (inactive); in assay [6], > 100 µM (inactive); in [7], > 100 µM (inactive); in assay [9], 0.198 µM (active).

Take `COc1ccc([Se][Se]c2ccc(OC)cc2OC)c(OC)c1`: the GI50 in [1] is 3.3 µM (inactive); in assay [2] it was 2.01 µM (inactive); in [3], 1.97 µM (inactive); in assay [5], 2.1 µM (inactive); in assay [6], 2.03 µM (inactive); in assay [8] it was 6.31 µM (inactive). Moreover, the GI50 in assay [7] was 2.66 µM (inactive); in assay [9] it was 1.94 µM (inactive).

Turning to `CCOc1cc2ccc3c4cc(OC)c(OC)cc4cnc3c2cc1OCC`, the GI50 in assay [1], in assay [2], in [3], in [4], in [5] and in [6] was > 100 µM (inactive) each time. The GI50 in [7] and in assay [9] was > 100 µM (inactive) in each case.

Consider `CNC1=C(C)C(=O)C(C)=C(C(C)(C)CC(=O)n2cc(F)c(=O)[nH]c2=O)C1=O`, for which the GI50 was 12.8 µM (inactive) in assay [1]; 74.6 µM (inactive) in assay [2]; > 100 µM (inactive) in assay [3]; 31.3 µM (inactive) in assay [4]; > 89.1 µM (inactive) in assay [5]; 49.7 µM (inactive) in assay [6]. The GI50 in assay [8] is 23.4 µM (inactive); in assay [7] it was > 100 µM (inactive); in [9] it was 97.7 µM (inactive).

Regarding `C=C1CCC2C(C)(CO)C(O)CCC2(C)C1CC(O)C1=CCOC1=O` (configuration not stated), the GI50 is 86.3 µM (inactive) in [1]; 41.8 µM (inactive) in assay [2]; 54.7 µM (inactive) in [3]; 47.4 µM (inactive) in assay [4]; 27 µM (inactive) in assay [5]; 45.5 µM (inactive) in assay [6]. Besides, the GI50 in assay [8] was 30.5 µM (inactive).

For `COc1ccc(C2C(C(=O)O)=C(COC(C)=O)Oc3cc4c(cc32)OCO4)c(OC)c1` (configuration not stated), the GI50 in [1], in assay [2], in assay [3], in assay [4], in [6] and in assay [8] was > 100 µM (inactive) throughout. Further, the GI50 in [7] and in assay [9] was > 100 µM (inactive) throughout.

Regarding `C=CC[C@@]1(C#N)C[C@H](C[C@]2(C#N)C[C@H](CCl)OC(C)(C)O2)OC(C)(C)O1`, the GI50 in assay [1] was > 100 µM (inactive); in [2], 41.2 µM (inactive); in assay [3] it was > 100 µM (inactive); in assay [4], > 100 µM (inactive); in assay [6], > 100 µM (inactive); in assay [9], 81.1 µM (inactive).

With `COc1cc(C(Cc2ccccc2)NC(C)=O)oc(=O)c1` (configuration not stated), the GI50 in assay [1], in assay [2], in [4], in [5], in assay [6] and in assay [9] was > 100 µM (inactive) in each case.

With `C/N=C(\N)c1ccc(NC(=N)c2ccc(C(=N)Nc3ccc(/C(N)=N/C)cc3)cc2)cc1`, the GI50 in assay [2], in assay [5], in [6] and in assay [8] was > 100 µM (inactive) each time.

Regarding `CC(C)N(C(=O)C12C3C4C5C3C1(C(=O)N(C(C)C)C(C)C)C5(C#N)C42)C(C)C` (configuration not stated), the GI50 in assay [1] is 27.1 µM (inactive); in [2], > 100 µM (inactive); in assay [3], > 100 µM (inactive); in [4], > 100 µM (inactive); in assay [5], > 100 µM (inactive); in assay [6] it was > 100 µM (inactive). For the same molecule, the GI50 in assay [8], in assay [7] and in [9] was > 100 µM (inactive) throughout.

Consider `Nc1ccc(C(=O)CC2(O)C(=O)Nc3c(Cl)cc(Cl)cc32)cc1` (configuration not stated), for which the GI50 was 42.9 µM (inactive) in assay [1]; 90.6 µM (inactive) in [3]; > 100 µM (inactive) in assay [4]; 37.8 µM (inactive) in assay [5]; 47 µM (inactive) in [6]; 28.8 µM (inactive) in [8].

As for `COC(=O)C(=O)C(C(=O)C(=O)Nc1ccccc1C(N)=O)c1nc2ccc(C(=O)c3ccccc3)cc2nc1O` (configuration not stated), the GI50 in [2] was > 100 µM (inactive); in [3] it was 37.1 µM (inactive); in assay [4], > 100 µM (inactive); in assay [5] it was 44.6 µM (inactive); in assay [6], > 100 µM (inactive); in assay [8], > 100 µM (inactive). For the same molecule, the GI50 in [7] is 68.7 µM (inactive); in assay [9], > 100 µM (inactive).

Regarding `O=C1C(c2ccc([N+](=O)[O-])cc2)=[N+]([O-])c2ccc([N+](=O)[O-])cc21`, the GI50 is 33.4 µM (inactive) in assay [1]; 30.1 µM (inactive) in assay [2]; 54.8 µM (inactive) in assay [3]; 28.4 µM (inactive) in assay [5]; 27.6 µM (inactive) in assay [6]; 35.6 µM (inactive) in assay [8]. In addition, in [7], the GI50 is 79.8 µM (inactive).
